Structures can show the parent of a compound that is named as a salt. Where two headings read alike, the source gives them in different places.

The conditions of data set [1]: in vivo; cited from earlier work.
For data set [2], the system named is central and peripheral muscarinic effects. To be noted: cited from earlier work.
For data set [3], the target named is muscarinic acetylcholine receptors. The experiment in a line: inhibition of specific binding of 3H-Oxotremorine-M (3H-Oxo), in vitro. Details: species or system rat (cortex from male Wistar rats). The conditions noted are these: 3H-Oxo binding, rat cortex, 1.0 nM radioligand, 20 mM Hepes pH 7.4, 30 min at 25° C. An excerpt:
The pharmacological properties of the compounds of the invention can be illustrated by determining their capability to inhibit the specific binding of ^3 H-Oxotremorine-M (^3 H-Oxo). Birdsdall N. J. M., Hulme E. C., and Burgen A. S. V. (1980). "The Character of Muscarinic Receptors in Different Regions of the Rat Brain". Proc. Roy. Soc. London (Series B) 207,1. ^3 H-Oxo labels muscarinic receptor in the CNS (with a preference for agonist domaines of the receptors). Three different sites are labelled by ^3 H-Oxo. […] Using the present experimental conditions only the high and medium affinity sites are determined.
The inhibitory effects of compounds on ^3 H-Oxo binding reflects the affinity for muscarinic acetylcholine receptors.
All preparations are performed at 0°-4° C. unless otherwise indicated. Fresh cortex (0.1-1 g) from male Wistar rats (150-250 g) is homogenized for 5-10 s in 10 ml 20 mM Hepes pH: 7.4, with an Ultra-Turrax homogenizer. The homogenizer is rinsed with 10 ml of buffer and the combined suspension centrifuged for 15 min at 40,000×g. The pellet is washed three times with buffer. In each step the pellet is homogenized as before in 2×10 ml of buffer and centrifuged for 10 min at 40,000×g.
The final pellet is homogenized in 20 mM Hepes pH: 7.4 (100 ml per g of original tissue) and used for binding assay. Aliquots of 0.5 ml is added 25 μl of test solution and 25 μl of 3H-Oxotremorine (1.0 nM, final concentration) mixed and incubated for 30 min at 25° C. Non-specific binding is determined in triplicate using arecoline (1 μg/ml, final concentration) as the test substance. After incubation samples are added 5 ml of ice-cold buffer and poured directly onto Whatman GF/C glass fiber filters under suction and immediately washed 2 times with 5 ml of ice-cold buffer. The amount of radioactivity on the filters are determined by conventional liquid scintillation counting. Specific binding is total binding minus non specific binding.
Test substances are dissolved in 10 ml water (if necessary heated on a steambath for less than 5 minutes) at a concentration of 2.2 mg/ml.
The test value will be given as IC50 (the concentration (ng/ml) of the test substance which inhibits the specific binding of ^3 H-Oxo by 50%). [formula] where Co is specific binding in control assays and Cx is the specific binding in the test assay. (The calculations assume normal mass-action kinetics).

Data set [4] concerns the target muscarinic receptor in the CNS. The conditions noted are these: read-out: affinity of sites labelled by 3H-Oxo, cited from earlier work.

`COC(=O)C1=CCCN(C)C1` [Arecoline, methyl 1-methyl-1,2,5,6-tetrahydropyridine-3-carboxylate]: the biological half life entry in data set [1] was “very short biological half life”. For the same compound, the “separation between central and peripheral muscarinic effects” value in data set [2] is “small separation between central and peripheral muscarinic effects”. As to `COc1nsnc1C1=C(C)CCN(C)C1.O=C(O)/C=C/C(=O)O` [Compound 1, 1,2,5,6-Tetrahydro-3-(4-methoxy-1,2,5-thiadiazol-3-yl)-1,4-dimethylpyridine fumarate], the “Inhibition in vitro OXO BINDING (IC50)” value in data set [3] was found to be 108 ng/mL. Consider `CCCCCCOc1nsnc1C1=C(C)CCN(C)C1` [Compound 2, 3-(4-Hexyloxy-1,2,5-thiadiazol-3-yl)-1,2,5,6-tetrahydrohydro-1,4-dimethylpyridine oxalate], for which the “Inhibition in vitro OXO BINDING (IC50)” value in data set [3] turned out to be 18 ng/mL.

For the compound `CCCCCCSc1nsnc1C1=CCC(C)N(C)C1.O=C(O)C(=O)O` (stereo not shown) [Compound 3, 3-(3-Hexylthio-1,2,5-thiadiazol-4-yl)-1,2,5,6-tetrahydro-1,6-dimethylpyridine oxalate], the “Inhibition in vitro OXO BINDING (IC50)” value in data set [3] turned out to be 4.5 ng/mL. With `C[N+](C)(C)CC#CCN1CCCC1=O` [Compound 3H-Oxo, ^3 H-Oxotremorine-M], the Kd in data set [4] (first of three sites (high affinity)) is 1.8 nM; in data set [4] (second of three sites (medium affinity)) it was 20 nM; in data set [4] (third of three sites (not determined under the present conditions)) it was 3000 nM. Take `CCCCCSc1nsnc1C1=CCC(C)N(C)C1.O=C(O)C(=O)O` (stereo not shown) [Compound 4, 3-(3-Pentylthio-1,2,5-thiadiazol-4-yl)-1,2,5,6-tetrahydro-1,6-dimethylpyridine oxalate]: the “Inhibition in vitro OXO BINDING (IC50)” value in data set [3] came out at 2.0 ng/mL. Take `CC1CC=C(c2nsnc2SCc2ccc(C#N)cc2)CN1C.O=C(O)C(=O)O` (stereo not shown) [Compound 5, 3-(3-(4-Cyanobenzylthio)-1,2,5-thiadiazol-4-yl)-1,2,5,6-tetrahydro-1,6-dimethylpyridine oxalate]: the “Inhibition in vitro OXO BINDING (IC50)” value in data set [3] was 1.9 ng/mL. Take `CCCCCCOc1nsnc1C1=CCC(C)N(C)C1.O=C(O)C(=O)O` (stereo not shown) [Compound 6, 3-(3-Hexyloxy-1,2,5-thiadiazol-4-yl)-1,2,5,6-tetrahydro-1,6-dimethylpyridine oxalate]: in data set [3], the “Inhibition in vitro OXO BINDING (IC50)” value is 2.4 ng/mL. As to `CCCCCOc1nsnc1C1=CCC(C)N(C)C1.O=C(O)C(=O)O` (stereo not shown) [Compound 7, 3-(3-Pentyloxy-1,2,5-thiadiazol-4-yl)-1,2,5,6-tetrahydro-1,6-dimethylpyridine oxalate], the “Inhibition in vitro OXO BINDING (IC50)” value in data set [3] came to 3.3 ng/mL. Turning to `CC1CC=C(c2nsnc2SCCCCC#N)CN1C.O=C(O)C(=O)O` (stereo not shown) [Compound 8, 3-(3-(4-Cyanobutylthio)-1,2,5-thiadiazol-4-yl)-1,2,5,6-tetrahydro-1,6-dimethylpyridine oxalate], in data set [3], the “Inhibition in vitro OXO BINDING (IC50)” value came out at 0.69 ng/mL.

The record behind these values is patent publication US5591755A, “Pyridinyl thiadiazolyl compounds for treating glaucoma” (Novo Nordisk A/S, priority 1990, dated 1997).
